PMC9500805, “Cytotoxic Assessment of 3,3-Dichloro-β-Lactams Prepared through Microwave-Assisted Benzylic C-H Activation from Benzyl-Tethered Trichloroacetamides Catalyzed by RuCl2(PPh3)3” (Molecules, 2022)
≈ marks a conversion by molar mass, not a printed value.

Columns and labels:
[1] = Hemolysis assay with human erythrocytes; type: cell-based; conditions: human erythrocyte suspension, PBS pH 7.4, mean ± SD; for hemolysis at 10 µg/mL: compound at 10 µg/mL; for hemolysis at 80 µg/mL: compound at 80 µg/mL
Method: Human blood samples were obtained from the Banc de Sang i Teixits de Barcelona (Spain) from the Catalan Department of Health. Blood was deposited in tubes with the anticoagulant EDTA-K3. Blood samples were centrifuged at 3000 rpm at 4 °C for 10 min (Megafuge 2.0 R. Heraeus Instruments, Hanau, Germany) to induce sedimentation. Plasma was extracted with a Pasteur pipette. Next, the residual pellet was washed with PBS at pH 7.4. This procedure was repeated three times to remove residual leukocytes and platelets and to concentrate the erythrocytes. Following the last wash, the erythrocyte suspension was diluted (1:1) in PBS at pH 7.4 to obtain a suitable erythrocyte suspension (cell density of 8 × 10^9 cell/mL).
The hemolysis assay determined the capability of the different compounds to induce hemolysis of the erythrocyte membrane. Stock solutions of each compound at 1 mg/mL in PBS at pH 7.4 were prepared. Different volumes (10–80 µL) were placed in polystyrene tubes, and an aliquot of 25 µL of the erythrocyte suspensions was added to each tube. The final volume was 1 mL. The tubes were incubated at room temperature under rotatory conditions. Next, the tubes were centrifuged at 10,000 rpm for 5 min. The supernatants’ absorbance at 540 nm (Shimadzu UV-160A, Shimadzu, Duisburg, Germany) was compared with that of the control samples hemolyzed with distilled water (positive control). The negative control was obtained by incubating an aliquot of 25 µL of the erythrocyte suspension with PBS at pH 7.4.
The degree of hemolysis was determined with the following equation:Hemolysis (%) = 100 × (Abs − Ab0)/(Abs100 − Abs0) where Abs, Abs0 and Abs100 are the absorbance of test samples, of the suspension treated with isotonic physiological buffer saline (PBS) and of the suspension of complete hemolysis treated with distilled water, respectively.

HaCaT cells [2] = experiment: Cell viability, MTT assay, HaCaT; type: cell-based; conditions: Homo sapiens, 24 h, MTT endpoint, 10–250 µg/mL tested
Method: (§1) The immortal human keratinocyte (HaCaT) and the squamous cell carcinoma (A431) cell lines were obtained from Celltec UB. Cells were grown in DMEM medium (4.5 g/L glucose) supplemented with 10% (v/v) FBS, 2 mM L-glutamine, 100 U/mL penicillin and 100 µg/mL streptomycin at 37 °C, 5% CO2. Cells were routinely cultured in 75 cm^2 culture flasks and were trypsinized using trypsin–EDTA when the cells reached approximately 80% confluence. The trypan blue assay, which allows a direct identification and enumeration of live (unstained) and dead (blue) cells in a given population, was used to evaluate the viability of the cells in the cell suspension obtained.
(§2) HaCaT cells (1 × 10^5 cells/mL) and A431 cells (5 × 10^4 cells/mL) were grown at the defined densities in the 60 central wells of a 96-well plate. Cells were incubated for 24 h in 5% CO2 at 37 °C. Then, the spent medium was removed, and cells were incubated for 24 h with the corresponding compound solutions (1 mg/mL) previously diluted in the minimum amount of DMF (dimethylformamide) and then in DMEM medium supplemented with 5% FBS (100 µL) at the required concentration range (10–250 µg/mL). The viability of the cells upon incubation with the β-lactam derivatives was assayed using 2 different endpoints: NRU and MTT.
(§3) Only living cells can reduce the yellow tetrazolium salt 3-(4,5-dimethyl-2-thiazolyl)-2,5-diphenyltetrazolium bromide (MTT) to insoluble purple formazan crystals. After 24 h of incubation of the cells with the corresponding NPs, the medium was removed, and 100 µL of MTT (Sigma-Aldrich, St. Louis, United States) in PBS (5 mg/mL) diluted 1:10 in culture medium without phenol red and without FBS (Lonza, Verviers, Belgium) was added to the cells. After 3 h of incubation, the medium was removed. Thereafter, 100 µL of DMSO (Sigma-Aldrich, St. Louis, MO, USA) was added to each well to dissolve the purple formazan crystals. Agitation and determination of the absorbance of the extracted solution were performed under the same conditions, as described in Section 3.4.1. Finally, the effect of each treatment was calculated as the percentage of tetrazolium salt reduction by viable cells relative to the control cells (cells without any treatment).
(§4) The corresponding half-maximal inhibitory concentration (IC50) values for the different formulations as a function of cell line and endpoint were determined from the fitting of concentration-dependent viability curves.

HaCaT cells [3] = experiment: Cell viability, NRU assay, HaCaT; type: cell-based, human; conditions: 24 h, NRU endpoint, 10–250 µg/mL tested; for IC50: Homo sapiens
Method: as §1, §2
(§5) The neutral red uptake (NRU) assay is based on the accumulation of the dye in the lysosomes of viable cells. After the cells were incubated for 24 h with the corresponding systems, the medium was removed, and the solutions were incubated with the NR dye (Sigma-Aldrich, St. Louis, MO, USA) solution (50 µg/mL) dissolved in the medium without FBS and without phenol red (Lonza, Verviers, Belgium) for 3 h. Cells were then washed with sterile PBS, followed by the addition of 100 µL of a solution containing 50% absolute ethanol and 1% acetic acid in distilled water to extract the dye. To promote total dissolution of the dye, plates were placed in a microtiter-plate shaker for 5 min at room temperature. The absorbance of the resulting solutions was measured at 550 nm (Bio-Rad 550 microplate reader, Bio-Rad California, Hercules, CA, USA). Finally, the effect of each treatment was calculated as the percentage of dye uptake by viable cells relative to the control cells (cells without any treatment).
as §4

A431 cells [4] = experiment: Cell viability, MTT assay, A431; type: cell-based, human; conditions: for IC50: Homo sapiens, A-431, 24 h, A431, 24 h, MTT endpoint, 10–250 µg/mL tested; for SI MTT: SI = IC50 HaCaT / IC50 A431, MTT endpoint
Method: as §1, §2, §3, §4
(§6) The corresponding selectivity indexes toward tumoral cells were calculated as the following ratio:SI = IC50 (non-tumoral cell line)/IC50 (tumoral cell line) where HaCaT keratinocytes were used as close representatives of a skin model cell line under non-tumoral conditions.

A431 cells [5] = experiment: Cell viability, NRU assay, A431; type: cell-based, human; conditions: for IC50: Homo sapiens, A-431, 24 h, A431, 24 h, NRU endpoint, 10–250 µg/mL tested; for SI NRU: SI = IC50 HaCaT / IC50 A431, NRU endpoint
Method: as §1, §2, §5, §4, §6

HaCaT cells [6] = experiment: Cell viability, HaCaT, MTT and NRU endpoints taken together; type: cell-based; conditions: Homo sapiens, 24 h, span over or independent of endpoint method
Method: as §1, §2
as §5, with “Cells were then washed with sterile PBS, followed by the addition of 100 µL of a solution containing 50% absolute ethanol and 1% acetic acid in distilled water to extract the dye. To promote total dissolution of the dye, plates were placed in a microtiter-plate shaker for 5 min at room temperature.” left out
Only living cells can reduce the yellow tetrazolium salt 3-(4,5-dimethyl-2-thiazolyl)-2,5-diphenyltetrazolium bromide (MTT) to insoluble purple formazan crystals. […] Agitation and determination of the absorbance of the extracted solution were performed under the same conditions, as described in Section 3.4.1. Finally, the effect of each treatment was calculated as the percentage of tetrazolium salt reduction by viable cells relative to the control cells (cells without any treatment).
as §4

A431 cells [7] = experiment: Cell viability, A431, MTT and NRU endpoints taken together; type: cell-based; conditions: Homo sapiens, A-431; A431, 24 h, span over or independent of endpoint method
Method: as §1, §2, §5, §3, §4

[8] = Cell viability-screening assays (MTT and NRU), both cell lines; type: cell-based, human; conditions: human, HaCaT keratinocytes and A431 squamous cell carcinoma cells; HaCaT and A431, MTT and NRU, 24 h, 10–250 µg/mL; as a function of cell type and endpoint method; read-out: percentage viability compared to control cells
Method: as §1, §2, §5, §3

HaCaT and A431 cells = experiment: as above; type: cell-based, human; conditions: regardless of the concentration range
Method: as §1, §2, §5, §3

[9] = test system: human MCF-7 breast cancer cells; design: method as in PMID 21397510; conditions: cited from earlier work
[10] = human, pH 7.4, human RBC suspension

SMILES	hemolysis at 10 µg/mL ([1]; human RBC suspension) [%]	hemolysis at 80 µg/mL ([1]; human RBC suspension) [%]	IC50 (HaCaT cells [2]) [µg/mL]	IC50 (HaCaT cells [3]) [µg/mL]	IC50 (A431 cells [4]) [µg/mL]	SI MTT (A431 cells [4])	IC50 (A431 cells [5]) [µg/mL]	SI NRU (A431 cells [5])	IC50 (HaCaT cells [6]) [µg/mL]	IC50 (A431 cells [7]) [µg/mL]	viability at 24 h [8] [%]	hemolysis at 10 µg/mL [1, 10] [%]	hemolysis at 80 µg/mL [1, 10] [%]	IC50 HaCaT NRU (HaCaT cells [3]) [µg/mL]	selectivity against the cell type (HaCaT vs A431 cytotoxicity) (HaCaT and A431 cells)	IC50 [9] [nM]
CC(C)(C)N1C(=O)C(Cl)(Cl)C1c1ccccc1 (centres unmarked) [2b]	0.01 ± 0.01	2.5 ± 0.97	19.8 (≈ 72.8 µM)	48.3 (≈ 177 µM)	46.9 (≈ 172 µM)	0.42	29.5 (≈ 109 µM)	1.63	20 to 49 (≈ 73.5 to 180 µM)	30 to 47 (≈ 110 to 173 µM)	< 20	–	–	–	–	–
CC(C)N1C(=O)C(Cl)(Cl)C1c1ccccc1 (centres unmarked) [2j]	–	–	42.1 (≈ 163 µM)	40.1 (≈ 155 µM)	76.2 (≈ 295 µM)	0.55	37.9 (≈ 147 µM)	1.06	40 to 42 (≈ 155 to 163 µM)	38 to 76 (≈ 147 to 294 µM)	< 20	0.01 ± 0.01	0.02 ± 0.02	–	–	–
O=C1N(C2CCCCC2)C(c2ccccc2)C1(Cl)Cl (centres unmarked) [2k]	–	–	> 250	~220 (≈ 738 µM)	250 (≈ 838 µM)	>1.0	220 (≈ 738 µM)	>1.13	–	> 250	< 20	~0.25	0.3 ± 0.21	>250	–	–
CC(C)(C)N1C(=O)C(Cl)(Cl)C1c1cc(F)cc(F)c1 (centres unmarked) [2h]	–	–	> 250	> 250	250 (≈ 811 µM)	>1.0	250 (≈ 811 µM)	>1.0	> 250	~250 (≈ 811 µM)	≤ 50	0.05 ± 0.05	0.12 ± 0.09	–	the opposite results	–
Cc1ccccc1C1N(C(C)(C)C)C(=O)C1(Cl)Cl (centres unmarked) [2c]	–	–	~250 (≈ 874 µM)	> 250	~250 (≈ 874 µM)	1.0	> 250	>1.0	–	–	≤ 50	0.01 ± 0.01	0.01 ± 0.01	–	–	–
COc1ccc([C@@H]2[C@@H](c3ccsc3)C(=O)N2c2cc(OC)c(OC)c(OC)c2)cc1O [II]	–	–	–	–	–	–	–	–	–	–	–	–	–	–	–	10
COc1ccc([C@@H]2[C@@H](c3cccs3)C(=O)N2c2cc(OC)c(OC)c(OC)c2)cc1O [I]	–	–	–	–	–	–	–	–	–	–	–	–	–	–	–	7
Cc1ccc(C2N(C(C)(C)C)C(=O)C2(Cl)Cl)cc1 (centres unmarked) [2e]	–	–	92.6 (≈ 324 µM)	78.8 (≈ 275 µM)	180 (≈ 629 µM)	0.51	121 (≈ 422 µM)	0.65	78 to 93 (≈ 273 to 325 µM)	120 to 180 (≈ 419 to 629 µM)	< 20	0.01 ± 0.01	0.2 ± 0.23	–	higher cytotoxicity in HaCaT cells than in A431 cells	–
